Measurements reported in patent US9795602B2, “Polycyclic-carbamoylpyridone compounds and their pharmaceutical use” (Gilead Sciences, Inc., priority 2014, dated 2017).
Where two headings read alike, the source gives them in different places.

What was measured:
Assay type in all cases: cell-based
[1] = target: PXR (NR1I2) (Homo sapiens (Human), UniProt O75469); experiment: Human PXR activation assay (luciferase reporter, DPX2 cells); conditions: human
Experimental: Luciferase Reporter Gene Assay.
A stably transformed tumor cell line (DPX2) was plated on 96-well microtiter plates. […]. The number of viable cells was determined and the reporter gene activity was assessed. […]

[2] = system: HIV-IIIb; experiment: Antiviral assay in MT4 cells; conditions: MT4 cells, HIV-IIIb, 5 days, read-out: EC50
Experimental: 1 mL aliquots of 2×10^6 MT4 cells are pre-infected for 1 and 3 hours respectively at 37° C. with 25 μL (MT4) or of either cell growth medium (mock-infected) or a fresh 1:250 dilution of an HIV-IIIb concentrated ABI stock (0.004 m.o.i. for MT4 cells). Infected and uninfected cells are diluted in cell growth medium and 35 μL of 2000 (for MT4) cells is added to each well of the assay plates.
Assay plates were then incubated in a 37° C. incubator. After 5 days of incubation, 25 μL of 2× concentrated CellTiter-Glo™ Reagent (catalog # G7573, Promega Biosciences, Inc., Madison, Wis.) was added to each well of the assay plate. Cell lysis was carried out by incubating at room temperature for 2-3 minutes, and then chemiluminescence was read using the Envision reader (PerkinElmer).

[3] = Cytotoxicity (CC50) in MT4 cells, mock-infected; conditions: human
Experimental: Infected and uninfected cells are diluted in cell growth medium and 35 μL of 2000 (for MT4) cells is added to each well of the assay plates. Assay plates were then incubated in a 37° C. incubator. After 5 days of incubation, 25 μL of 2× concentrated CellTiter-Glo™ Reagent (catalog # G7573, Promega Biosciences, Inc., Madison, Wis.) was added to each well of the assay plate. Cell lysis was carried out by incubating at room temperature for 2-3 minutes, and then chemiluminescence was read using the Envision reader (PerkinElmer).

[4] = 15 uM, DPX2 cells, % Emax relative to rifampicin, adjusted for DMSO background, read-out: PXR % inh at 15 uM (adjusted)
[5] = Human immunodeficiency virus 1, IIIB, MT4, 120 h

Chain of PXR (NR1I2) (O75469 whole entry): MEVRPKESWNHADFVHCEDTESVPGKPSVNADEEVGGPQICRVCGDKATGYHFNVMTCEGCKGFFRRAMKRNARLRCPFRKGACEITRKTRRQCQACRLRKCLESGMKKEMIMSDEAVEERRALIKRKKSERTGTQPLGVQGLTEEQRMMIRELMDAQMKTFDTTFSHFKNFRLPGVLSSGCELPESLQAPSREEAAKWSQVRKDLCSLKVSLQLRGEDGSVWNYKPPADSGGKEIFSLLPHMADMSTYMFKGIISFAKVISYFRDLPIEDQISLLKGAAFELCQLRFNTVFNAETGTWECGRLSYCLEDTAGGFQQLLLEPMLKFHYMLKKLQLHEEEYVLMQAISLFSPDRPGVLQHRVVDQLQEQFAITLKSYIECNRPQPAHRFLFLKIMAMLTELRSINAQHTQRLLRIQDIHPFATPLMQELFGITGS

Row | inhibition at 24 h, 15 µM [1, 4] [%] | EC50 [2, 5] [nM] | inhibition at 24 h, 15 µM [1] [%] | Compound | CC50 at 5 days ([3]; mock-infected (uninfected)) [nM] | CC50 at 5 days ([3]; mock-infected) [nM] | EC50 ([2]; Human immunodeficiency virus 1, 120 h) [nM]
1 | 1 | 9.6 | – | CCN1C(=O)c2c(O)c(=O)c(C(=O)NCc3ccc(F)c(F)c3)cn2[C@H]2CCOC[C@H]21 [Compound 20] | 34100 | – | –
2 | 3 | 5.67 | – | CN1C(=O)c2c(O)c(=O)c(C(=O)NCc3c(F)cc(F)cc3F)cn2[C@H]2COC[C@H]21 [Compound 42] | 31900 | – | –
3 | 10 | 3.07 | – | CCN1C(=O)c2c(O)c(=O)c(C(=O)NCc3c(F)cc(F)cc3F)cn2[C@H]2COCC[C@H]21 [Compound 56, (4aR,11aR)-5-ethyl-7-hydroxy-6,8-dioxo-N-(2,4,6-trifluorobenzyl)-1,3,4,4a,5,6,8,11a-octahydropyrano[4,3-e]pyrido[1,2-a]pyrazine-9-carboxamide] | – | 4490 | –
4 | 7 | 2.13 | – | CCN1C(=O)c2c(O)c(=O)c(C(=O)NCc3cccc(Cl)c3F)cn2[C@H]2CCOC[C@H]21 [Compound 16] | 11500 | – | –
5 | 11 | 4.28 | – | CCN1C(=O)c2c(O)c(=O)c(C(=O)NCc3ccc(F)c(F)c3F)cn2[C@H]2CCOC[C@H]21 [Compound 19] | 27800 | – | –
6 | 33 | 7.26 | – | CCN1C(=O)c2c(O)c(=O)c(C(=O)NCc3c(F)cc(F)cc3F)cn2[C@@H]2COC[C@@H]21 [Compound 45] | 36700 | – | –
7 | 4 | 3.69 | – | CN1C(=O)c2c(O)c(=O)c(C(=O)NCc3ccc(F)c(Cl)c3F)cn2[C@@H]2CCOC[C@H]21 [Compound 11] | 8320 | – | –
8 | 66 | 4.74 | – | CCN1C(=O)c2c(O)c(=O)c(C(=O)NCc3c(F)cc(F)cc3F)cn2[C@@H]2CCCC[C@@H]21 [Compound 5] | 17000 | – | –
9 | – | 1.28 | 4 | CCN1C(=O)c2c(O)c(=O)c(C(=O)NCc3c(F)cc(F)cc3F)cn2[C@H]2CCC(=O)C[C@H]21 [Compound 40a] | 29000 | – | –
10 | 2 | 1.91 | – | C[C@@H]1OCC[C@H]2[C@@H]1N(C)C(=O)c1c(O)c(=O)c(C(=O)NCc3ccc(F)c(Cl)c3F)cn12 [Compound 55, (4S,4aS,11aS)-N-(3-chloro-2,4-difluorobenzyl)-7-hydroxy-4,5-dimethyl-6,8-dioxo-1,2,4,4a,5,6,8,11a-octahydropyrano[3,4-e]pyrido[1,2-a]pyrazine-9-carboxamide] | – | 9660 | –
11 | 8 | 2.92 | – | C[C@@H]1OCC[C@H]2[C@@H]1N(C)C(=O)c1c(O)c(=O)c(C(=O)NCc3c(F)cc(F)cc3F)cn12 [Compound 54, (4S,4aS,11aS)-7-hydroxy-4,5-dimethyl-6,8-dioxo-N-(2,4,6-trifluorobenzyl)-1,2,4,4a,5,6,8,11a-octahydropyrano[3,4-e]pyrido[1,2-a]pyrazine-9-carboxamide] | – | 23900 | –
12 | 6 | 3.8 | – | O=C(NCc1c(F)cc(F)cc1F)c1cn2c(c(O)c1=O)C(=O)N(CC(F)(F)F)[C@@H]1COCC[C@H]12 [Compound 35] | 16500 | – | –
13 | 9 | 5.7 | – | CCN1C(=O)c2c(O)c(=O)c(C(=O)NCc3ccc(F)c(C)c3F)cn2[C@H]2CCOC[C@H]21 [Compound 47] | 27200 | – | –
14 | 7 | 4.8 | – | CCN1C(=O)c2c(O)c(=O)c(C(=O)NCc3cc(F)c(F)cc3F)cn2[C@H]2CCOC[C@H]21 [Compound 17] | 23900 | – | –
15 | 4 | 4.4 | – | O=C(NCc1c(F)cc(F)cc1F)c1cn2c(c(O)c1=O)C(=O)N[C@H]1CCC[C@H]12 [Compound 28] | 10800 | – | –
16 | 13 | 2.88 | – | CN1C(=O)c2c(O)c(=O)c(C(=O)NCc3c(F)cc(F)cc3F)cn2[C@@H]2COC[C@@H]21 [Compound 43] | 11300 | – | –

More lines, now with the values behind:

Row | Compound | inhibition at 24 h, 15 µM [1, 4] [%] | EC50 [2, 5] [nM] | inhibition at 24 h, 15 µM [1] [%] | CC50 at 5 days ([3]; mock-infected (uninfected)) [nM] | CC50 at 5 days ([3]; mock-infected) [nM] | EC50 ([2]; Human immunodeficiency virus 1, 120 h) [nM]
17 | CN1C(=O)c2c(O)c(=O)c(C(=O)NCc3c(F)cc(F)cc3F)cn2[C@H]2COCC[C@]21C [Compound 14] | 26 | 2.89 | – | 11600 | – | –
18 | O=C(NCc1c(F)cc(F)cc1F)c1cn2c(c(O)c1=O)C(=O)N(CC(F)F)[C@@H]1COCC[C@@H]12 [Compound 34] | 3 | 2.23 | – | 32300 | – | –
19 | CN1C(=O)c2c(O)c(=O)c(C(=O)NCc3c(F)cc(F)cc3F)cn2[C@@H]2CCOC[C@@H]21 [Compound 30] | 9 | 3.25 | – | 10400 | – | –
20 | CCN1C(=O)c2c(O)c(=O)c(C(=O)NCc3c(F)cc(F)cc3F)cn2[C@@H]2CCO[C@@H]21 [Compound 26a] | 15 | 5.27 | – | 24300 | – | –
21 | CN1C(=O)c2c(O)c(=O)c(C(=O)NCc3c(F)cc(F)cc3F)cn2[C@H]2C[C@@H]3C[C@@H]3[C@H]21 [Compound 51, (6aR,6bS,7aS,8aS)-4-hydroxy-6-methyl-3,5-dioxo-N-(2,4,6-trifluorobenzyl)-5,6,6a,6b,7,7a,8,8a-octahydro-3H-cyclopropa[4,5]cyclopenta[1,2-e]pyrido[1,2-a]pyrazine-2-carboxamide] | 33 | – | – | – | 6710 | 5.28
22 | O=C(NCc1c(F)cc(F)cc1F)c1cn2c(c(O)c1=O)C(=O)N[C@@H]1CCCC[C@@H]12 [Compound 60] | 2 | 1.9 | – | 13800 | – | –
23 | O=C(NCc1c(F)cc(F)cc1F)c1cn2c(c(O)c1=O)C(=O)N[C@H]1CCCC[C@@H]12 [Compound 61] | – | 6.3 | 0 | 31400 | – | –
24 | CN1C(=O)c2c(O)c(=O)c(C(=O)NCc3c(F)cc(F)cc3F)cn2[C@H]2CCCC[C@@H]21 [Compound 2] | – | 3.9 | 46 | 11200 | – | –
25 | O=C(NCc1ccc(F)c(Cl)c1F)c1cn2c(c(O)c1=O)C(=O)N(CC(F)(F)F)[C@@H]1COCC[C@@H]12 [Compound 50] | 1 | 2.68 | – | 48400 | – | –
26 | CN1C(=O)c2c(O)c(=O)c(C(=O)NCc3c(F)cc(F)cc3F)cn2[C@@H]2CCO[C@@H]21 [Compound 23] | 8 | 3.77 | – | 18000 | – | –
27 | CN1C(=O)c2c(O)c(=O)c(C(=O)NCc3c(F)cc(F)cc3F)cn2[C@H]2CCCC[C@H]21 [Compound 59] | 44 | 3.42 | – | – | 11400 | –
28 | CCN1C(=O)c2c(O)c(=O)c(C(=O)NCc3cccc(F)c3F)cn2[C@H]2CCOC[C@H]21 [Compound 18] | 2 | 3.33 | – | 26900 | – | –
29 | CCN1C(=O)c2c(O)c(=O)c(C(=O)NCc3ccc(F)c(Cl)c3F)cn2[C@@H]2CCOC[C@H]21 [Compound 13] | 5 | 10.7 | – | 7320 | – | –
30 | CN1C(=O)c2c(O)c(=O)c(C(=O)NCc3ccc(F)c(Cl)c3F)cn2[C@H]2C[C@@H]3C[C@@H]3[C@H]21 [Compound 52, (6aR,6bS,7aS,8aS)-N-(3-chloro-2,4-difluorobenzyl)-4-hydroxy-6-methyl-3,5-dioxo-5,6,6a,6b,7,7a,8,8a-octahydro-3H-cyclopropa[4,5]cyclopenta[1,2-e]pyrido[1,2-a]pyrazine-2-carboxamide] | 24 | 4.95 | – | – | 2820 | –
